For two molecules, logP results are on record in patent US9688865B2, “Liquid composition, pigment dispersion liquid, and aqueous ink composition for ink jet recording” (Seiko Epson Corporation, priority 2015, dated 2017).

For orientation: logP means the decadic logarithm of the partition coefficient of the neutral form, usually between octanol and water.

The structures appear in SMILES notation.

Series [1] is described as follows: Distribution coefficient of water-octanol (log P), OECD Test Guideline 107.

Take `OCC(CO)(CO)CO` [Pentaerythritol]: the logP in the series “physchem” is -2.36.
On to `CCCCCCCC(=O)OCC(CO)(CO)CO` [Pentaerythritol caprylate, pentaerythritol caprylate], for which the logP in series [1] was 2.29.
